Reference: patent US20240174695A1, “Spirocycle Containing Bicyclic Heteroaryl Compounds” (Protego Biopharma, Inc., priority 2022, published 2024)

tested on: Recombinant amyloidogenic full length light chain protein WIL-FL T46L; test: Differential Scanning Fluorimetry Assay (thermal shift assay); assay type: binding; conditions: Thermal Shift Protein Stability Kit (Biotium), 96-well plates; protein and compounds incubated at RT for 30 min before adding the dye; also: test concentration or dose not given here
Protocol: Differential Scanning Fluorimetry Assay
The stabilization effects the compounds have on the immunoglobulin light chain protein were quantitively measured using a thermal shift assay. Recombinant amyloidogenic full length light chain protein WIL-FL T46L was produced in E. coli, purified, and used in the assay. The Thermal Shift Protein Stability Kit from Biotium was used and the assay was done in 96-well plates following the manufacturer's instructions. The protein and compounds were incubated at RT for 30 min before adding the dye and subjected to the thermal shift assay. The thermal stability (Tm) of each sample was then determined using standard curve fitting methods and compared to vehicle. Data are expressed as temperature shift: [Tm]compound−[Tm]vehicle.
Results • 0-0.5° C.=* • >0.5-1° C.=** • >1-1.5° C.=*** • >1.5-2.5° C.=**** • >2.5° C.=*****

SMILES | DSF temperature shift: [Tm]compound−[Tm]vehicle
Cc1cc(N2CC3(CN(CC(O)c4nc5c(C)cc(OC[C@H](C)c6ccccc6)cn5n4)C(=O)N3)C2)cc(O)n1 (stereo partly drawn) [Compound 16] | ***** (>2.5° C.=*****)
Cc1cc(N2CCC(C)(c3ccccc3)C2)cn2nc(CCCN3C(=O)NC4(CCN(c5nccn6ccnc56)CC4)C3=O)nc12 (stereo not drawn) [Compound 17] | ***** (>2.5° C.=*****)
Cc1cc(N2CCC3(CC2)CN(CC(O)c2nc4c(C)cc(OCC5(c6ccccc6)CC5)cn4n2)C(=O)N3)ccn1 (stereo not drawn) [Compound 18] | ***** (>2.5° C.=*****)
Cc1cc(N2CC[C@@](C)(c3ccccc3)C2)cn2nc(C(C)(O)CN3CC4(CCN(c5ccnc(O)c5)CC4)NC3=O)nc12 (stereo partly drawn) [Compound 20] | ***** (>2.5° C.=*****)
Cc1cc(N2CC[C@@](C)(c3ccccc3)C2)cn2nc(C(O)CN3CC4(CCN(c5ccnc(O)c5)CC4)NC3=O)nc12 (stereo partly drawn) [Compound 21] | ***** (>2.5° C.=*****)
Cc1cc(N2CC[C@@](C)(c3ccccc3)C2)cn2nc(C(O)CN3CC4(CCN(c5nccn6ccnc56)CC4)NC3=O)nc12 (stereo partly drawn) [Compound 22] | ***** (>2.5° C.=*****)
Cc1cc(N2CC[C@@](C)(c3ccccc3)C2)cn2nc(C(O)CN3CC4(CN(c5ccnc(O)c5)C4)NC3=O)nc12 (stereo partly drawn) [Compound 23] | ***** (>2.5° C.=*****)
Cc1cc(N2CC[C@@](C)(c3ccccc3)C2)cn2nc(C(O)CN3CC4(CN(c5cccc(C(=O)O)n5)C4)NC3=O)nc12 (stereo partly drawn) [Compound 25] | ***** (>2.5° C.=*****)
Cc1cc(N2CC[C@@](C)(c3ccccc3)C2)cn2nc(C(O)CN3CC4(CN(c5cccc(O)n5)C4)NC3=O)nc12 (stereo partly drawn) [Compound 26] | ***** (>2.5° C.=*****)
Cc1cc(N2CC[C@@](C)(c3ccccc3)C2)cn2nc(CCN3CC4(CN(c5ccnc(O)c5)C4)NC3=O)nc12 [Compound 27] | ***** (>2.5° C.=*****)
Cc1cc(OCC2(c3ccccc3)CC2)cn2nc(C(O)CN3CC4(CCN(C(=O)C5(c6ccccn6)CC5)CC4)NC3=O)nc12 (stereo not drawn) [Compound 29] | ***** (>2.5° C.=*****)
Cc1cc(OCC2(c3ccccc3)CC2)cn2nc(C(O)CN3CC4(CCN(C(=O)c5nncn5C)CC4)NC3=O)nc12 (stereo not drawn) [Compound 30, 3-(2-hydroxy-2-(8-methyl-6-((1-phenylcyclopropyl)methoxy)-[1,2,4]triazolo[1,5-a]pyridin-2-yl)ethyl)-8-(4-methyl-4H-1,2,4-triazole-3-carbonyl)-1,3,8-triazaspiro[4.5]decan-2-one] | **** (>1.5-2.5° C.=****)
Cc1nonc1C(=O)N1CCC2(CC1)CN(CC(O)c1nc3c(C)cc(OCC4(c5ccccc5)CC4)cn3n1)C(=O)N2 (stereo not drawn) [Compound 31] | **** (>1.5-2.5° C.=****)
Cc1cc(OCC2(c3ccccc3)CC2)cn2nc(C(O)CN3CC4(CCN(C(=O)Cc5nnc[nH]5)CC4)NC3=O)nc12 (stereo not drawn) [Compound 32] | **** (>1.5-2.5° C.=****)
Cc1cc(OCC2(c3ccccc3)CC2)cn2nc(C(O)CN3CC4(CCN(C(=O)Cn5cnnn5)CC4)NC3=O)nc12 (stereo not drawn) [Compound 33] | **** (>1.5-2.5° C.=****)
Cc1cc(OCC2(c3ccccc3)CC2)cn2nc(C(O)CN3CC4(CCN(C(=O)Cn5nnnc5C)CC4)NC3=O)nc12 (stereo not drawn) [Compound 34] | **** (>1.5-2.5° C.=****)
Cc1cc(OCC2(c3ccccc3)CC2)cn2nc(C(O)CN3CC4(CCN(c5cccnc5C(F)(F)F)CC4)NC3=O)nc12 (stereo not drawn) [Compound 35] | **** (>1.5-2.5° C.=****)
Cc1cc(F)ncc1N1CCC2(CC1)CN(CC(O)c1nc3c(C)cc(OCC4(c5ccccc5)CC4)cn3n1)C(=O)N2 (stereo not drawn) [Compound 36] | **** (>1.5-2.5° C.=****)

SMILES | DSF temperature shift: [Tm]compound−[Tm]vehicle
Cc1cc(OCC2(c3ccccc3)CC2)cn2nc(C(O)CN3CC4(CCN(c5ccnc(Cl)c5)CC4)NC3=O)nc12 (stereo not drawn) [Compound 37] | **** (>1.5-2.5° C.=****)
Cc1cc(OCC2(c3ccccc3)CC2)cn2nc(C(O)CN3CC4(CCN(c5cnc(C#N)c(F)c5)CC4)NC3=O)nc12 (stereo not drawn) [Compound 38] | **** (>1.5-2.5° C.=****)
Cc1cc(OCC2(c3ccccc3)CC2)cn2nc(C(O)CN3CC4(CCN(c5cc(F)nc(F)c5)CC4)NC3=O)nc12 (stereo not drawn) [Compound 39] | ** (>0.5-1° C.=**)
Cc1cc(OCC2(c3ccccc3)CC2)cn2nc(C(O)CN3CC4(CCN(c5ccc(Cl)nc5)CC4)NC3=O)nc12 (stereo not drawn) [Compound 41] | **** (>1.5-2.5° C.=****)
Cc1cc(OCC2(c3ccccc3)CC2)cn2nc(C(O)CN3CC4(CCN(c5ccc(F)nc5)CC4)NC3=O)nc12 (stereo not drawn) [Compound 42] | **** (>1.5-2.5° C.=****)
Cc1cc(OCC2(c3ccccc3)CC2)cn2nc(C(O)CN3CC4(CCN(c5ccc(F)nn5)CC4)NC3=O)nc12 (stereo not drawn) [Compound 43] | **** (>1.5-2.5° C.=****)
Cc1cc(OCC2(c3ccccc3)CC2)cn2nc(C(O)CN3CC4(CCN(c5ccnc(F)n5)CC4)NC3=O)nc12 (stereo not drawn) [Compound 44] | ***** (>2.5° C.=*****)
Cc1cc(OCC2(c3ccccc3)CC2)cn2nc(C(O)CN3CC4(CCN(c5ccnc(O)c5)CC4)NC3=O)nc12 (stereo not drawn) [Compound 45] | ***** (>2.5° C.=*****)
Cc1cc(OCC2(c3ccccc3)CC2)cn2nc(C(O)CN3CC4(CCN(c5ccncc5)CC4)NC3=O)nc12 (stereo not drawn) [Compound 46] | **** (>1.5-2.5° C.=****)
Cc1cc(OCC2(c3ccccc3)CC2)cn2nc(C(O)CN3CC4(CCN(c5ccnnc5)CC4)NC3=O)nc12 (stereo not drawn) [Compound 47] | **** (>1.5-2.5° C.=****)
Cc1cc(OCC2(c3ccccc3)CC2)cn2nc(C(O)CN3CC4(CCN(c5ccc(C(=O)O)nc5)CC4)NC3=O)nc12 (stereo not drawn) [Compound 48] | **** (>1.5-2.5° C.=****)
Cc1cc(OCC2(c3ccccc3)CC2)cn2nc(C(O)CN3CC4(CCN(c5cncnc5)CC4)NC3=O)nc12 (stereo not drawn) [Compound 49] | **** (>1.5-2.5° C.=****)
Cc1nccc(N2CCC3(CC2)CN(CC(O)c2nc4c(C)cc(OCC5(c6ccccc6)CC5)cn4n2)C(=O)N3)n1 (stereo not drawn) [Compound 50] | **** (>1.5-2.5° C.=****)
Cc1nsc(N2CCC3(CC2)CN(CC(O)c2nc4c(C)cc(OCC5(c6ccccc6)CC5)cn4n2)C(=O)N3)n1 (stereo not drawn) [Compound 51] | ***** (>2.5° C.=*****)
Cc1cc(OCC2(c3ccccc3)CC2)cn2nc(C(O)CN3CC4(CCN(c5ccc(N)c(F)n5)CC4)NC3=O)nc12 (stereo not drawn) [Compound 52] | ***** (>2.5° C.=*****)
Cc1cc(OCC2(c3ccccc3)CC2)cn2nc(C(O)CN3CC4(CCN(c5nc(F)ccc5N)CC4)NC3=O)nc12 (stereo not drawn) [Compound 53] | **** (>1.5-2.5° C.=****)
Cc1cc(OCC2(c3ccccc3)CC2)cn2nc(C(O)CN3CC4(CCN(c5ncc(C(=O)O)n6ccnc56)CC4)NC3=O)nc12 (stereo not drawn) [Compound 54] | **** (>1.5-2.5° C.=****)
Cc1cc(OCC2(c3ccccc3)CC2)cn2nc(C(O)CN3CC4(CCN(c5cnc(Cl)cn5)CC4)NC3=O)nc12 (stereo not drawn) [Compound 55] | **** (>1.5-2.5° C.=****)
